Patent US11826351B2, “Compounds useful as kinase inhibitors” (Loxo Oncology, Inc., priority 2015, dated 2023)

Assays:
[1] = molecular target: T1, Recombinant BTK^WT kinase (Homo sapiens, UniProt Q06187); assay: BTK WT binding affinity (LanthaScreen TR-FRET); settings: Kinase Tracer 236, 5 h incubation
T1 construct: purchased Invitrogen
Experimental: BTK^WT binding affinity of each compound tested was determined using a time-resolved fluorescence resonance energy transfer (TR-FRET) methodology. 2.5 nM Recombinant BTK^WT kinase, varying concentrations of inhibitor, 2 nM LanthaScreen™ Eu anti-His Antibody and 15 nM Kinase Tracer 236 was incubated in 1× LanthaScreen™ Kinase Buffer A for 5 h. Recombinant BTK kinase and all LanthaScreen™ components were purchased from Invitrogen. Measurements were performed in a reaction volume of 30 μL using half-area 96-well assay plates. The TR-FRET signal was read on a plate reader with an excitation wavelength of 340 nm and detection wavelengths of 615 and 665 nm. Binding affinity was determined for each compound by measuring TR-FRET signal at various concentrations of compound and plotting the relative fluorescence units against the inhibitor concentration to estimate the IC50 from log[Inhibitor] vs response using the Variable Slope model in Graphpad prism from Graphpad software (San Diego, Calif.).

[2] = molecular target: T2, Recombinant BTK^C481S kinase (Homo sapiens, UniProt Q06187, C481S); assay: BTK C481S binding affinity (LanthaScreen TR-FRET); settings: Kinase Tracer 236, 5 h incubation
T2 construct: purchased SignalChem
Experimental: BTK^C481S binding affinity of each compound tested was determined using a time-resolved fluorescence resonance energy transfer (TR-FRET) methodology. 5 nM Recombinant BTK^WT kinase, varying concentrations of inhibitor, 2 nM LanthaScreen™ Eu anti-His Antibody and 30 nM Kinase Tracer 236 was incubated in 1× LanthaScreen™ Kinase Buffer A for 5 h. Recombinant BTK^C481S kinase was purchased from SignalChem and all LanthaScreen™ components were purchased from Invitrogen. Measurements were performed in a reaction volume of 30 μL using half-area 96-well assay plates. The TR-FRET signal was read on a plate reader with an excitation wavelength of 340 nm and detection wavelengths of 615 and 665 nm. Binding affinity was determined for each compound by measuring TR-FRET signal at various concentrations of compound and plotting the relative fluorescence units against the inhibitor concentration to estimate the IC50 from log[Inhibitor] vs response using the Variable Slope model in Graphpad prism from Graphpad software (San Diego, Calif.).

Recombinant EGFR = molecular target: T3, Recombinant EGFR (Homo sapiens, UniProt P00533); assay: EGFR binding affinity (LanthaScreen TR-FRET); settings: Kinase Tracer 199, 5 h incubation
T3 construct: purchased Invitrogen
Experimental: EGFR binding affinity was determined using a time-resolved fluorescence resonance energy transfer (TR-FRET) methodology. […] Recombinant EGFR and all LanthaScreen™ components were purchased from Invitrogen. Measurements were performed in a reaction volume of 30 μL using half-area 96-well assay plates. […] Binding affinity was determined for each compound by measuring TR-FRET signal at various concentrations of compound and plotting the relative fluorescence units against the inhibitor concentration to estimate the IC50 from log[Inhibitor] vs response using the Variable Slope model in Graphpad prism from Graphpad software (San Diego, Calif.).

[3] = tested on: OCI-Ly10 human DLBCL cells; assay: OCI-Ly10 anti-proliferative activity (Resazurin); assay type: cell-based; settings: Homo sapiens, OCI-Ly10, 72 h, OCI-Ly10 cells, 72 h compound treatment, Resazurin; read-out: Proliferation Assay OCI-Ly10-20% FBS
Experimental: Compounds were assayed for effects on the growth of OCI-Ly10 human DLBCL cells that are dependent on NFκB signalling. […] Cells were then plated at 7.5×10^3 cells per well in 96-well plates in varying concentrations of compound and incubated for 72 h at 37° C. An additional plate of cells to be used as the Day 0 read was seeded without compound addition, Resazurin was added to each well, incubated for 5 h and the fluorescence measured at 590 nm. After 72 h of compound treatment, Resazurin was added to each well of the compound treated plates, incubated for 5 h and the fluorescence measured at 590 nm. The IC50 was then calculated by subtracting the average Day 0 value from each well value from the treated plates, each treatment was then calculated as a percentage of the DMSO control and the percentages plotted against the inhibitor concentration to estimate the IC50 from log[Inhibitor] vs response using the Variable Slope model in Graphpad prism from Graphpad software (San Diego, Calif.).

T2 sequence (Q06187 whole entry C481S): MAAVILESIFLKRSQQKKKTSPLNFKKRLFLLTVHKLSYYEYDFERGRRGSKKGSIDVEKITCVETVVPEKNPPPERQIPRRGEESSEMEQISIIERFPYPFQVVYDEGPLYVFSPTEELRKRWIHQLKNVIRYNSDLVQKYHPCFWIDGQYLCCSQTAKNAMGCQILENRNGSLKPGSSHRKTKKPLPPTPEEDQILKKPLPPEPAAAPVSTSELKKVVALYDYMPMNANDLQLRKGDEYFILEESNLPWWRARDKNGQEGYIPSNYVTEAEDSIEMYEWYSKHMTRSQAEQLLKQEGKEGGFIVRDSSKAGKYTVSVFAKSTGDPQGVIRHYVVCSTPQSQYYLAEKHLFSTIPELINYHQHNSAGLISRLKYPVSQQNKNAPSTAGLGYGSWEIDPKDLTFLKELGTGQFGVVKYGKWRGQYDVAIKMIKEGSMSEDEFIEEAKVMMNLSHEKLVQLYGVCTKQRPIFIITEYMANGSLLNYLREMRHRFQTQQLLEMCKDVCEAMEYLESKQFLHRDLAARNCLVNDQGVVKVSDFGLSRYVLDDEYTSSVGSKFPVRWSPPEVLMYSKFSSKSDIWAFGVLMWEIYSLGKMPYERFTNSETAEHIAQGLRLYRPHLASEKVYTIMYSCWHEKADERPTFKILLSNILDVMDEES
T1 sequence (Q06187 whole entry): as the sequence (Q06187 whole entry C481S) above, with S481C counted along it
T3 sequence (P00533 25-1210): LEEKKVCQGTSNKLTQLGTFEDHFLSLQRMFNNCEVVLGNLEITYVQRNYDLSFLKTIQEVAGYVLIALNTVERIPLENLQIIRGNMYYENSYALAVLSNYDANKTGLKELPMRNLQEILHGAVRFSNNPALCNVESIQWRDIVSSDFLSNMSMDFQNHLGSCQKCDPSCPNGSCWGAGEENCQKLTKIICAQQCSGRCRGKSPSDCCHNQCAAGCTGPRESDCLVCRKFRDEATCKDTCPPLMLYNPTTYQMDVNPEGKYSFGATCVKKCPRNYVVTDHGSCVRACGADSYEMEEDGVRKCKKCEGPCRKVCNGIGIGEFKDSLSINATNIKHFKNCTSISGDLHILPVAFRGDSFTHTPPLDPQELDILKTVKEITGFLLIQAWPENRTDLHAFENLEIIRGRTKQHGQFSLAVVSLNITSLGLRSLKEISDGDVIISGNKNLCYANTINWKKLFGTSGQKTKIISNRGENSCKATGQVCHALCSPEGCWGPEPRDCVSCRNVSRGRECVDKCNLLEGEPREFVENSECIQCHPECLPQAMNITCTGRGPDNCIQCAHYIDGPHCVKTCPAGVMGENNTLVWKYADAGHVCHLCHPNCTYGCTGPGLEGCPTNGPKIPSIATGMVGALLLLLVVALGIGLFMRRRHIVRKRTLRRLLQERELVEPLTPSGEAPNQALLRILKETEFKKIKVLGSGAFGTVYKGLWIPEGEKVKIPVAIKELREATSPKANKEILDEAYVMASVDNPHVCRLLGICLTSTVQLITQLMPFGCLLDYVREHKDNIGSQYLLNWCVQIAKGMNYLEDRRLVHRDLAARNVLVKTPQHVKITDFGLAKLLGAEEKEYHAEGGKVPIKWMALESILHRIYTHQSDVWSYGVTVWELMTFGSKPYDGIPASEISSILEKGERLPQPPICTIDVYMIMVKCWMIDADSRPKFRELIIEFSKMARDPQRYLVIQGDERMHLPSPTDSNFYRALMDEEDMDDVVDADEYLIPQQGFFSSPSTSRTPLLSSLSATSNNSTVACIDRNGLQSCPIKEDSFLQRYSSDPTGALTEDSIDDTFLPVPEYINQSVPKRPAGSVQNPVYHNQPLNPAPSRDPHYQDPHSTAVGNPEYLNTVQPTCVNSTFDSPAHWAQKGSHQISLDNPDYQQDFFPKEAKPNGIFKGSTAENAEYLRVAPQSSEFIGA

Structure (SMILES)	IC50 [1]	IC50 [2]	IC50 (Recombinant EGFR)	IC50 [3]
COc1ccc(F)cc1C(=O)NCc1ccc(-c2nn(C(C)C(F)(F)F)c(N)c2C(N)=O)c(F)c1F (centres unmarked) [Example 165, 5-amino-3-[2,3-difluoro-4-[[(5-fluoro-2-methoxy-benzoyl)amino]methyl]phenyl]-1-(2,2,2-trifluoro-1-methyl-ethyl)pyrazole-4-carboxamide]	10 to 100 nM	< 10 nM	1000 to 10000 nM	10 to 100 nM
CNc1c(C(N)=O)c(-c2ccc(CNC(=O)c3ccccc3OC)cc2)nn1C1CCOCC1 [Example 91, 3-[4-[[(2-methoxybenzoyl)amino]methyl]phenyl]-5-(methylamino)-1-tetrahydropyran-4-yl-pyrazole-4-carboxamide]	10 to 100 nM	< 10 nM	1000 to 10000 nM	100 to 1000 nM
COc1ccc(F)cc1C(=O)NCc1ccc(-c2nn(C(C3CCCC3)C(F)(F)F)c(N)c2C(N)=O)cc1 (centres unmarked) [Example 196, 5-Amino-1-(1-cyclopentyl-2,2,2-trifluoro-ethyl)-3-[4-[[(5-fluoro-2-methoxy-benzoyl)amino]methyl]phenyl]pyrazole-4-carboxamide]	10 to 100 nM	10 to 100 nM	1000 to 10000 nM	100 to 1000 nM
COc1ccccc1C(=O)NCc1ccc(-c2nn(C(C(C)C)C(F)(F)F)c(N)c2C(N)=O)cc1 (centres unmarked) [Example 171, 5-amino-3-[4-[[(2-methoxybenzoyl)amino]methyl]phenyl]-1-[2-methyl-1-(trifluoromethyl)propyl]pyrazole-4-carboxamide]	10 to 100 nM	< 10 nM	1000 to 10000 nM	100 to 1000 nM
COc1ccc(F)cc1C(=O)NCc1c(F)cc(-c2nn(C3CCCOC3)c(N)c2C(N)=O)cc1F (centres unmarked) [Example 158, 5-amino-3-[3,5-difluoro-4-[[(5-fluoro-2-methoxy-benzoyl)amino]methyl]phenyl]-1-tetrahydropyran-3-yl-pyrazole-4-carboxamide]	10 to 100 nM	10 to 100 nM	> 10000 nM	100 to 1000 nM
COc1ccccc1C(=O)NCc1ccc(-c2nn([C@@H]3CCOC3)c(N)c2C(N)=O)cc1 [Example 83b, 5-amino-3-[4-[[(2-methoxybenzoyl)amino]methyl]phenyl]-1-[(3R)-tetrahydrofuran-3-yl]pyrazole-4-carboxamide]	< 10 nM	< 10 nM	1000 to 10000 nM	10 to 100 nM
COc1ccc(F)cc1C(=O)NCc1ccc(-c2nn(C3CCCC3)c(N)c2C(N)=O)cc1 [Example 88, 5-amino-1-cyclopentyl-3-[4-[[(5-fluoro-2-methoxy-benzoyl)amino]methyl]phenyl]pyrazole-4-carboxamide]	< 10 nM	< 10 nM	100 to 1000 nM	< 10 nM
CCC(C)n1nc(-c2ccc(CNC(=O)c3ccccc3OC)cc2)c(C(N)=O)c1N (centres unmarked) [Example 150, 5-amino-3-[4-[[(2-methoxybenzoyl)amino]methyl]phenyl]-1-sec-butyl-pyrazole-4-carboxamide]	< 10 nM	< 10 nM	1000 to 10000 nM	10 to 100 nM
COc1ccccc1C(=O)NCc1cc(-c2nn(C3CCCC3)c(N)c2C(N)=O)ccc1F [Example 118, 5-amino-1-cyclopentyl-3-[4-fluoro-3-[[(2-methoxybenzoyl)amino]methyl]phenyl]pyrazole-4-carboxamide]	100 to 1000 nM	10 to 100 nM	1000 to 10000 nM	1000 to 10000 nM
COc1ccccc1C(=O)NCc1ccc(-c2nn(C3CNCC3(F)F)c(N)c2C(N)=O)cc1 (centres unmarked) [Example 144, 5-amino-1-(4,4-difluoropyrrolidin-3-yl)-3-[4-[[(2-methoxybenzoyl)amino]methyl]phenyl]pyrazole-4-carboxamide]	< 10 nM	< 10 nM	100 to 1000 nM	100 to 1000 nM
COc1ccccc1C(=O)NCc1ccc(-c2nn(C3CCOCC3)c(N)c2C(N)=O)c(F)c1F [Example 141, 5-amino-3-[2,3-difluoro-4-[[(2-methoxybenzoyl)amino]methyl]phenyl]-1-tetrahydropyran-4-yl-pyrazole-4-carboxamide]	10 to 100 nM	< 10 nM	> 10000 nM	100 to 1000 nM
COc1ccccc1C(=O)NCc1c(F)cc(-c2nn(C3CCCC3)c(N)c2C(N)=O)cc1F [Example 138, 5-amino-1-cyclopentyl-3-[3,5-difluoro-4-[[(2-methoxybenzoyl)amino]methyl]phenyl]pyrazole-4-carboxamide]	10 to 100 nM	10 to 100 nM	> 10000 nM	100 to 1000 nM
COc1ccccc1C(=O)NCc1ccc(-c2nn(C3CCCC3)c(N)c2C(N)=O)c(F)c1F [Example 155, 5-amino-1-cyclopentyl-3-[2,3-difluoro-4-[[(2-methoxybenzoyl)amino]methyl]phenyl]pyrazole-4-carboxamide]	< 10 nM	< 10 nM	1000 to 10000 nM	10 to 100 nM

Now from value to compound:

IC50 [1]	IC50 [2]	IC50 (Recombinant EGFR)	IC50 [3]	Structure (SMILES)
< 10 nM	< 10 nM	> 10000 nM	10 to 100 nM	COc1ccc(F)cc1C(=O)NCc1ccc(-c2nn(C3CCCOC3)c(N)c2C(N)=O)c(F)c1F (centres unmarked) [Example 159, 5-amino-3-[2,3-difluoro-4-[[(5-fluoro-2-methoxy-benzoyl)amino]methyl]phenyl]-1-tetrahydropyran-3-yl-pyrazole-4-carboxamide]
< 10 nM	< 10 nM	1000 to 10000 nM	10 to 100 nM	COC(=O)c1ccc(-n2nc(-c3ccc(CNC(=O)c4ccccc4OC)cc3)c(C(N)=O)c2N)cc1 [Example 45, Methyl 4-[5-amino-4-carbamoyl-3-[4-[[(2-methoxybenzoyl)amino]methyl]phenyl]pyrazol-1-yl]benzoate]
< 10 nM	< 10 nM	100 to 1000 nM	10 to 100 nM	COc1ccccc1C(=O)NCc1ccc(-c2nn(C3CCC(OCc4ccccc4)CC3)c(N)c2C(N)=O)cc1 (mixture of isomers) [Example 28, 5-Amino-1-(4-benzyloxycyclohexyl)-3-[4-[[(2-methoxybenzoyl)amino]methyl]phenyl]pyrazole-4-carboxamide]
< 10 nM	< 10 nM	1000 to 10000 nM	10 to 100 nM	COc1ccccc1C(=O)NCc1ccc(-c2nn(C3CCCC3)c(N)c2C(N)=O)c(F)c1 [Example 130, 5-amino-1-cyclopentyl-3-[2-fluoro-4-[[(2-methoxybenzoyl)amino]methyl]phenyl]pyrazole-4-carboxamide]
< 10 nM	< 10 nM	1000 to 10000 nM	10 to 100 nM	COc1ccc(F)cc1C(=O)NCc1ccc(-c2nn(CC(F)(F)F)c(N)c2C(N)=O)cc1F [Example 128, 5-amino-3-[3-fluoro-4-[[(5-fluoro-2-methoxy-benzoyl)amino]methyl]phenyl]-1-(2,2,2-trifluoroethyl)pyrazole-4-carboxamide]
< 10 nM	< 10 nM	1000 to 10000 nM	10 to 100 nM	CCOC(=O)C1CCCC(n2nc(-c3ccc(CNC(=O)c4ccccc4OC)cc3)c(C(N)=O)c2N)C1 (single isomer, unassigned) [Example 58, ethyl 3-[5-amino-4-carbamoyl-3-[4-[[(2-methoxybenzoyl)amino]methyl]phenyl]pyrazol-1-yl]cyclohexanecarboxylate]
< 10 nM	< 10 nM	1000 to 10000 nM	10 to 100 nM	COc1ccccc1C(=O)NCc1ccc(-c2nn(C3CCOC3)c(N)c2C(N)=O)cc1 (centres unmarked) [Example 36, 5-Amino-3-[4-[[(2-methoxybenzoyl)amino]methyl]phenyl]-1-tetrahydrofuran-3-yl-pyrazole-4-carboxamide]
